Source: patent US20240336601A1 (Chulalongkorn University, priority 2020, published 2024)

Tests used:
[1] = biological target: interaction between PD-1 and PD-L1 (Homo sapiens, UniProt Q9NZQ7); assay: PD-1/PD-L1 protein-protein interaction assay (ALPHA); format: binding; conditions: 2 nM His-tagged human PD-L1, 0.6 nM PD-1-Fc, AlphaScreen
Method: PD-1′PD-L1 Protein-Protein Interaction Assay
Amplified Luminescent Proximity Homogeneous Assay (ALPHA) platform was used to evaluate the ability of the compounds to block the interaction between PD-1 and PD-L1. The assays were performed in half volume white 96-well plate in a final volume of 40 μl. Compounds at various concentrations were preincubated with 2 nM His tagged recombinant human PD-L1 protein and 0.6 nM recombinant PD-1 protein with Fc-tag (both reagents were purchased from AcroBiosystems) for 40 minutes. After the preincubation, 20 μg/mL of Alphascreen Ni chelate donor beads (PerkinElmer, USA) and Protein A acceptor beads (PerkinElmer, USA) were added into the well and incubated under reduced light at 25° C. for 120 minutes. The signal was measured with the EnSight Multimode Plate Reader. IC50 values were calculated from the four-parameter logistic curve fit.

PD-1/PD-L1 interaction = biological target: T1, PD-1/PD-L1 interaction (Homo sapiens, UniProt Q9NZQ7); assay: PD-1/PD-L1 blockage cell-based bioassay (Jurkat NFAT luciferase / CHO-PDL1 co-culture); conditions: Jurkat NFAT cells co-cultured with CHO-PDL1 cells, 6 h, luminescence
T1 construct: expressed in transfected cells
T1 sequence (Q9NZQ7 19-290): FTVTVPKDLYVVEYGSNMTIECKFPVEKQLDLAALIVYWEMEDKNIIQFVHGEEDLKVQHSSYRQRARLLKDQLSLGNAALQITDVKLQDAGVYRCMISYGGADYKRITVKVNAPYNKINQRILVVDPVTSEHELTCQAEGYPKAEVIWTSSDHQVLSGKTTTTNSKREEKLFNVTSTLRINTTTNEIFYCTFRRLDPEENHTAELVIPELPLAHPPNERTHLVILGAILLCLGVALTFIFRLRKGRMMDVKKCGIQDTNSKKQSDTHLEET
Method: PD-1/PD-L1 Blockage Cell-Based Bioassay
Jurkat T cells expressing human PD-1 and luciferase gene reporter driven by TCR-mediated NFAT response element (Jurkat NFAT) were co-cultured with CHO-kl cells expressing human PD-L1 and surface-bound TCR activator (CHO-PDL1). […] CHO-PDL1 cells (20,000 cells/well) were seeded overnight. Compounds were added on CHO-PDL1 and incubated for 2 h at 37° C. Jurkat NFAT cells (20,000 cells/well) were diluted in RPMI assay medium (RPMI1640 with 1% FBS) and added into each well. After co-incubation for 6 h at 37° C., luminescence was determined by adding Bio-Glo™ Luciferase reagent (Promega) and measured with a luminescence plate reader. EC50 values were calculated from the four-parameter concentration-response curves.

Chain of interaction between PD-1 and PD-L1 (Q9NZQ7 19-238 limits assumed): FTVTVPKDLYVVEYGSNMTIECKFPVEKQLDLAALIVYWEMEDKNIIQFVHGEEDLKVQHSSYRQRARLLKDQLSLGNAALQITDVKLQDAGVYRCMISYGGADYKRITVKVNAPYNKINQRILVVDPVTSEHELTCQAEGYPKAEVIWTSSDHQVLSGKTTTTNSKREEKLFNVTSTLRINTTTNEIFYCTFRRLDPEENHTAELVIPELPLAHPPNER

| Structure (SMILES) | IC50 [1] [nM] | IC50 (PD-1/PD-L1 interaction) [nM] |
| --- | --- | --- |
| COc1cc(-n2ncc3c(-c4cccc(Nc5nc(C(F)F)nc6cc(CN7CC[C@@H](O)C7)cnc56)c4C)cccc32)cc(OC)c1CN1CCC(C(=O)O)CC1 [Example 163, (R)-1-(4-(4-(3-((2-(difluoromethyl)-7-((3-hydroxypyrrolidin-1-yl)methyl)pyrido[3,2-d]pyrimidin-4-yl)amino)-2-methylphenyl)-1H-indazol-1-yl)-2,6-dimethoxybenzyl)piperidine-4-carboxylic acid] | < 1 | 201 to 2000 |
| COc1cc(-n2ncc3c(-c4cccc(-c5ccc(CN6CC7(CNC(=O)C7)C6)c(OC)n5)c4Cl)cccc32)cc(OC)c1CN1CC(C(C)(C)O)C1 [Example 137, 2-((6-(2-chloro-3-(1-(4-((3-(2-hydroxypropan-2-yl)azetidin-1-yl)methyl)-3,5-dimethoxyphenyl)-1H-indazol-4-yl)phenyl)-2-methoxypyridin-3-yl)methyl)-2,6-diazaspiro[3.4]octan-7-one] | < 1 | 201 to 2000 |
| COc1cc(-n2ncc3c(-c4cccc(-c5ccc(CNC[C@@H]6CCC(=O)N6)c(OC)n5)c4Cl)cccc32)cc(OC)c1CN1CC[C@@H](C(=O)O)C1 [Example 117, (R)-1-(4-(4-(2-chloro-3-(6-methoxy-5-(((((S)-5-oxopyrrolidin-2-yl)methyl)amino)methyl)pyridin-2-yl)phenyl)-1H-indazol-1-yl)-2,6-dimethoxybenzyl)pyrrolidine-3-carboxylic acid] | < 1 | < 200 |
| COc1cc(-n2ncc3c(-c4cccc(-c5ccc(CN6CC7(CNC(=O)C7)C6)c(OC)n5)c4Cl)cccc32)ncc1CNC[C@@H](C)O [Example 110, (R)-2-((6-(2-chloro-3-(1-(5-(((2-hydroxypropyl)amino)methyl)-4-methoxypyridin-2-yl)-1H-indazol-4-yl)phenyl)-2-methoxypyridin-3-yl)methyl)-2,6-diazaspiro[3.4]octan-7-one] | < 1 | 201 to 2000 |
| COc1cc(-n2ncc3c(-c4cccc(-c5ccc(CNC[C@@H]6CCC(=O)N6)c(OC)n5)c4Cl)cccc32)cc(OC)c1CNCC1(C(=O)O)CC1 [Example 66, (S)-1-(((4-(4-(2-chloro-3-(6-methoxy-5-((((5-oxopyrrolidin-2-yl)methyl)amino)methyl)pyridin-2-yl)phenyl)-1H-indazol-1-yl)-2,6-dimethoxybenzyl)amino)methyl)cyclopropanecarboxylic acid] | < 1 | < 200 |
| COc1cc(-n2ncc3c(-c4cccc(-c5ccc(CNC[C@H]6C[C@@H](O)C6)c(OC)n5)c4Cl)cccc32)cc(OC)c1CNC[C@@H]1CCC(=O)N1 [Example 55] | 1 to 10 | 201 to 2000 |
| COc1cc(-n2ncc3c(-c4cccc(-c5ccc(C6=NCCN6)c(OC)n5)c4Cl)cccc32)cc(OC)c1CNC[C@H]1C[C@@H](O)C1 [Example 77, cis-3-(((4-(4-(2-chloro-3-(5-(4,5-dihydro-1H-imidazol-2-yl)-6-methoxypyridin-2-yl)phenyl)-1H-indazol-1-yl)-2,6-dimethoxybenzyl)amino)methyl)cyclobutanol] | < 1 | 201 to 2000 |
| COc1cc(-n2ncc3c(-c4cccc(Nc5nc(C(F)F)nc6cc(CN7CC[C@@H](O)C7)cnc56)c4C)cccc32)cc(OC)c1CN1CC[C@@](C)(C(=O)O)C1 [Example 158, (R)-1-(4-(4-(3-((2-(difluoromethyl)-7-(((R)-3-hydroxypyrrolidin-1-yl)methyl)pyrido[3,2-d]pyrimidin-4-yl)amino)-2-methylphenyl)-1H-indazol-1-yl)-2,6-dimethoxybenzyl)-3-methylpyrrolidine-3-carboxylic acid] | < 1 | < 200 |
| COc1cc(-n2ccc3c(-c4cccc(-c5ccc(CN6CC(C)(C(=O)O)C6)c(OC)n5)c4Cl)cccc32)cc(OC)c1CNC[C@@H]1CCC(=O)N1 [Example 37] | 1 to 10 | 201 to 2000 |
| COc1cc(-n2ccc3c(-c4cccc(-c5ccc(CNC[C@@H]6CCC(=O)N6)c(OC)n5)c4Cl)cccc32)cc(OC)c1CNCC(C)(C)C(=O)O [Example 42] | < 1 | < 200 |
| COc1cc(-n2ncc3c(-c4cccc(-c5ccc(CN6CC7(CNC(=O)C7)C6)c(OC)n5)c4Cl)cccc32)cc(OC)c1CN[C@H](C(=O)O)[C@@H](C)O [Example 141, (4-(4-(2-chloro-3-(6-methoxy-5-((7-oxo-2,6-diazaspiro[3.4]octan-2-yl)methyl)pyridin-2-yl)phenyl)-1H-indazol-1-yl)-2,6-dimethoxybenzyl)-L-threonine] | < 1 | < 200 |
| COc1cc(-n2ncc3c(-c4cccc(-c5ccc(CN6CC(C(C)(C)O)C6)c(OC)n5)c4Cl)cccc32)cc(OC)c1CN1CC2(CCC(=O)N2)C1 [Example 140, 2-(4-(4-(2-chloro-3-(5-((3-(2-hydroxypropan-2-yl)azetidin-1-yl)methyl)-6-methoxypyridin-2-yl)phenyl)-1H-indazol-1-yl)-2,6-dimethoxybenzyl)-2,5-diazaspiro[3.4]octan-6-one] | 1 to 10 | 201 to 2000 |
